The source of these data is patent publication US20060073574A1 (priority 2001, published 2006).

Series [1] relates to BSE or scrapie agents. The conditions noted are these: cited from earlier work; for survival times: hamsters and mice infected intracerebrally with BSE or scrapie agents; for delaying the onset of symptoms associated with scrapie and BSE: transmissible spongiform encephalopathies scrapie and BSE.
Series [2] has as its system Leishmania. The settings on record: cited from earlier work.
For series [3] the following is noted: amphotericin B: intravenous or intrathecal routes; cited from earlier work.
The subject of series [4] is human immunodeficiency virus (HIV). The conditions noted are these: cited from earlier work; for inhibition of HIV infection / HIV-1 replication: cultured cells.
For series [5] the following is noted: derivative of amphotericin B; cited from earlier work.
The conditions of series [6]: compared with amphotericin B; cited from earlier work.
Series [7] concerns Saccharomyces cerevisiae. As to the kind of experiment: antifungal activity test against Saccharomyces cerevisiae. The conditions noted are these: tested against Saccharomyces cerevisiae.

Take `C[C@@H]1[C@H](O)[C@@H](C)/C=C/C=C/C=C/C=C/C=C/C=C/C=C/[C@H](O[C@@H]2O[C@H](C)[C@@H](O)[C@H](N)[C@@H]2O)C[C@@H]2O[C@](O)(C[C@@H](O)C[C@@H](O)[C@H](O)CC[C@@H](O)C[C@@H](O)CC(=O)O[C@H]1C)C[C@H](O)[C@H]2C(=O)O` [Amphotericin B]: in series [1], the survival times result was “prolonged the survival times”; the “delaying the onset of symptoms associated with scrapie and BSE” value is on record as “showed activity in delaying the onset of symptoms”. Besides, in series [2], the “activity against Leishmania” value is “active against Leishmania”. The toxicity result in series [3] is reported as “consistently associated with a number of toxic side-effects”. For the same compound, the “inhibition of HIV infection / HIV-1 replication” value in series [4] (in vitro) was “inhibits infection of cultured cells”.
As for `CNC[C@H](O)[C@@H](O)[C@H](O)[C@H](O)CO.C[C@@H]1[C@H](O)[C@@H](C)/C=C/C=C/C=C/C=C/C=C/C=C/C=C/[C@H](O[C@@H]2O[C@H](C)[C@@H](O)[C@H](NCC(=O)[C@@H](O)[C@@H]3OC(c4ccccc4)OC[C@H]3O)[C@@H]2O)C[C@@H]2O[C@](O)(C[C@@H](O)C[C@@H](O)[C@H](O)CC[C@@H](O)C[C@@H](O)CC(=O)O[C@H]1C)C[C@H](O)[C@H]2C(=O)O` (stereo partly shown) [MS-8209], the activity retained result in series [5] is “retains activity”. The water solubility result in series [6] is recorded as “more water soluble”. Moreover, in series [1], the survival times entry was “prolonged the survival times”; the “delaying the onset of symptoms associated with scrapie and BSE” value is recorded as “showed activity in delaying the onset of symptoms”. The “T-cell activation via the CD3/TcR” value in series [4] (HIV CD4+ cells) is “restore T-cell activation”. Further, the “inhibition of HIV infection / HIV-1 replication” value in series [4] (in vitro) was “inhibit HIV-1 replication in vitro in all cell types”. For the same compound, the cytotoxicity result in series [4] (in vitro, all cell types) is listed as “without cytotoxicity”.
`C[C@@H]1[C@H](O)[C@@H](C)/C=C/C=C/C=C/C=C/C=C/C=C/C=C/[C@H](O[C@@H]2O[C@@H](C)[C@@H](O)[C@H](N)[C@@H]2O)C[C@@H]2O[C@](O)(C[C@@H](O)C[C@@H](O)CCC[C@@H](O)C[C@@H](O)CC(=O)O[C@H]1C)C[C@H](O)[C@H]2C(=O)O` [8-deoxyamphotericin B]: the antifungal activity entry in series [7] is given as “as great as that of amphotericin B”.
